Among the data in EP1087973B1, “IMIDAZOTRIAZOLOPYRIMIDINES USED AS A DRUG HAVING AN ADENOSINE ANTAGONIST ACTIVITY” (Boehringer Ingelheim Pharma KG, priority 1998, dated 1999) are Ki values, retold here.

The first experiment addresses T1, human A3-adenosine receptor (Homo sapiens, UniProt P0DMS8).
T1 sequence (P0DMS8 1-318): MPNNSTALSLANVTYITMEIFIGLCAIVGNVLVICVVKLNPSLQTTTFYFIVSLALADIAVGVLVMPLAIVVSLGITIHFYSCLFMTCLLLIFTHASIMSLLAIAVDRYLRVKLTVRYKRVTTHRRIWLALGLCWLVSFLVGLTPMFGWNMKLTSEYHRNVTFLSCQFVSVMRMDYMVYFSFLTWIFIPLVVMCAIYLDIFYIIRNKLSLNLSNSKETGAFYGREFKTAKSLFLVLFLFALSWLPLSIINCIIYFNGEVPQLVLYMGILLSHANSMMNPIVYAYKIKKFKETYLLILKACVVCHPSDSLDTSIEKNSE
The experiment in a line: A3 receptor binding, determined in analogy to Salvatore et al. The settings on record: KiA3 (human) Rezeptorbindungswerte, Tabelle 3. From the text: Tabelle 3 enthält KiA3 (human) Rezeptorbindungswerte.
For the compound `CCCc1nc2c([nH]1)c(=O)n(CCC)c1nc(C3CCCC3)nn21` [Beispiel 2, 2-Cyclopentyl-4,7-di-n-propyl-imidazo[4.5-e]-s-triazolo[1.5-a]pyrimidin-5-on], the Ki came out at 5.6 nM.

`CCCn1c(=O)c2[nH]c(C)nc2n2nc(Cc3ccccc3)nc12` [Beispiel 8, 2-Benzyl-7-methyl-4-n-propyl-imidazo[4.5-e]-s-triazolo[1.5-a]pyrimidin-5-on]: the Ki worked out at 0.9 nM. Regarding `CCn1c(=O)c2[nH]c(C)nc2n2nc(CCc3ccccc3)nc12` [Beispiel 10, 4-Ethyl-7-methyl-2-(2-phenylethyl)-imi-dazo[4.5-e]-s-triazolo[1.5-a]pyrimidin-5-on], the Ki worked out at 7.2 nM. Turning to `CCCn1c(=O)c2[nH]c(C)nc2n2nc(-c3ccco3)nc12` [Beispiel 36, 2-(2-Furanyl)-7-methyl-4-n-propyl-imi-dazo[4.5-e]-s-triazolo[1.5-a]pyrimidin-5-on], the Ki came to 2.2 nM. In turn, `CCCc1nc2c([nH]1)c(=O)n(CCC)c1nc(-c3ccco3)nn21` [Beispiel 37, 2-(2-Furanyl)-4,7-di-n-propyl-imidazo[4.5-e]-s-triazolo[1.5-a]pyrimidin-5-on] returned a Ki of 8.3 nM.

The target in another experiment is T2, human A1 adenosine Receptor (Homo sapiens, UniProt P30542).
T2 sequence (P30542 1-326): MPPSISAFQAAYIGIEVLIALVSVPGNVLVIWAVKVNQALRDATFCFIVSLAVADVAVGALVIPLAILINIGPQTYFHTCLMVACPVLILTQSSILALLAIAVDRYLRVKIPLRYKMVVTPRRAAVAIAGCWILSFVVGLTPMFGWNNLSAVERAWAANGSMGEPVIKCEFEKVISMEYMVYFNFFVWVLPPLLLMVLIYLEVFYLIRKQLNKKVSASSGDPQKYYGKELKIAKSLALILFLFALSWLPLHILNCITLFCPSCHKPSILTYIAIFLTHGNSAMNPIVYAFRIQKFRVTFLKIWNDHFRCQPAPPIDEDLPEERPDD
The experiment in a line: A1 receptor binding, determined in analogy to Ensinger et al. The settings on record: KiA1 (human) Rezeptorbindungswerte, Tabelle 2; read-out: KjA1. The text has this:
Die nachfolgende Tabelle enthält KiA1 (human) Rezeptorbindungswerte.
In the case of `CCCc1nc2c([nH]1)c(=O)n(CC)c1nc(CCc3ccccc3)nn21` [Beispiel 11, 4-Ethyl-2-(2-phenylethyl)-7-n-propyl-imi-dazo[4.5-e]-s-triazolo[1.5-a]pyrimidin-5-on], the Ki came to 8.1 nM. On to `CCn1c(=O)c2[nH]c(C(C)(C)C)nc2n2nc(Cc3ccc(O)cc3)nc12` [Beispiel 12, 7-t-Butyl-4-ethyl-2-(4-hydroxybenzyl)-imi-dazo[4.5-e]-s-triazolo[1.5-a]pyrimidin-5-on], for which the Ki was determined as 6 nM. Same read-out and setting: then `CCn1c(=O)c2[nH]c(C(C)(C)C)nc2n2nc(Cc3ccc(OC)cc3)nc12` [Beispiel 15, 7-t-Butyl-4-ethyl-2-(4-methoxybenzyl)-imi-dazo[4.5-e]-s-triazolo[1.5-a]pyrimidin-5-on], with 2.1 nM; and `CCn1c(=O)c2[nH]c(C3CCCC3)nc2n2nc(COc3ccccc3)nc12` [Beispiel 29, 7-Cyclopentyl-4-ethyl-2-phenyloxymethyl-imidazo[4.5-e]-s-triazolo[1.5-a]pyrimidin-5-on], with 3.6 nM. For `CCn1c(=O)c2[nH]c(C3CCCC3)nc2n2nc(Cn3cccc3)nc12` [Beispiel 35, 7-Cyclopentyl-4-ethyl-2-(N-pyrrolylmethyl)-imidazo[4.5-e]-s-triazolo[1.5-a]pyrimidin-5-on], the Ki is 2.6 nM.
